From patent US20140288071A1, “INHIBITORS OF NOTUM […] AND METHODS OF THEIR USE” (priority 2011, published 2014)

Experiments:
[1] = tested on: F1 male hybrid (129×C57) mice; assay: Midshaft femur cortical thickness by microCT in treated mice; format: in vivo; conditions: for increase in midshaft femur cortical thickness: second study
Description: The compound was administered in the animals' diet. Four groups of mice were used: control (N=12); 25 mg/kg compound (N=9); 83 mg/kg compound (N=9); and an additional group wherein Li2CO3 was administered in the diet (0.1%) (N=9).
Midshaft femur cortical thickness was measured using a Scanco μCT40. […] For the Li2CO3 group, a decrease in cortical bone thickness of 2% (p=0.90) was observed. […]
Midshaft femur cortical thickness was measured by microCT (Scanco μCT40). […]

[2] = target: T1, human notum pectinacetyltransferase (Homo sapiens, UniProt Q6P988); assay: Binding assay (OPTS esterase substrate, fluorimetric); format: biochemical; conditions: OPTS substrate 5 μM
T1 construct: made in house; conditioned medium used
T1 sequence (Q6P988 20-496): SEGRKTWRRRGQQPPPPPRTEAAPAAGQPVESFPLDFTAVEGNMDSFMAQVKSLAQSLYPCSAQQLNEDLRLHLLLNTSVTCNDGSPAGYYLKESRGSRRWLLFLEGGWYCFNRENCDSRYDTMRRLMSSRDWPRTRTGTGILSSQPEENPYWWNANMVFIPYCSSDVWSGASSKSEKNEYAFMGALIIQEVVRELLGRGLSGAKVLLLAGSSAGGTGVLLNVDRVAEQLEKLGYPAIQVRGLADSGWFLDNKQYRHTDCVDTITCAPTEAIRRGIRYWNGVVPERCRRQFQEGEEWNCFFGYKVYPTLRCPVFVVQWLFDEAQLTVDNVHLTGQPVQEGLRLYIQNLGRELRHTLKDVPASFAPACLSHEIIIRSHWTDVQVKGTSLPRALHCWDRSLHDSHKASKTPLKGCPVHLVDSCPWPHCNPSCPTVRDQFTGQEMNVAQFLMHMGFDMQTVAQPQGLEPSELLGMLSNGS
Description: Plasmid containing human notum pectinacetyltransferase in pcDNA3.1(+) vector was transfected into HEK293 cells and clones were selecting by growing in presence of 400 ug/mL of G418. Condition media from these cells was used for the assay.

[3] = target: T1, human notum pectinacetyltransferase; assay: Reporter assay (CellSensor LEF/TCF-bla FreeStyle 293F cells, Wnt3a and notum conditioned media); format: cell-based
Description: Plasmid containing human notum pectinacetyltransferase in pcDNA3.1(+) vector was transfected into HEK293 cells and clones were selecting by growing in presence of 400 ug/mL of G418. […] L cells overexpressing and secreting Wnt3a into the conditioned media were purchased from ATCC.
The assay protocol was as follows. […] The cell growth medium consisted of DMEM with 10% Dialyzed FBS, 5 μg/ml Blasticidin (Invitrogen, R210-01), 0.1 mM NEAA, 25 mM HEPES and 1×GPS. Cells were then trypsinized by first rinsing with PBS, followed by addition of 5 mL of trypsin and incubation of plates at room temperature for two minutes. A total of 10 mL of assay media (Opti-MEM, plus 0.5% dialyzed FBS, 0.1 mM NEAA, 1 mM sodium pyruvate, 10 mM HEPES, 1×GPS) was then added per 15 cm plate. Cells were counted and suspended at 0.75 million cells per mL. […] After incubation of cells at 37° C. for 3 hours, 10 μL of 30 mM LiCl in assay medium was added per well, followed by incubation at 37° C. for another 3 hours. […] Ten μL of the Wnt3a/notum pentinacetyltransferase mixture was then transferred from Greiner plates to each well of the 384-well plates containing the CellSensor cells. After incubation of cells overnight at 37° C., reactions were developed by addition of […] of 1×CCF4 (Invitrogen, Catalogue number K1085) to each well, covering the entire 384-well plate, and gentle rocking in the dark at room temperature for 3 hours.

[4] = tested on: Fischer 344 ovariectomized rats; assay: Midshaft femur and tibia cortical thickness by microCT in sham and ovariectomized rats; format: in vivo; conditions: target dose 30 mg/kg in diet, five weeks, ANOVA p=0.05 for treatment
From the text: The pharmacology of 2-((5-chloro-6-methylthieno[2,3-d]pyrimidin-4-yl)thio)acetic acid was studied in Fischer 344 ovariectomized rats. The rats underwent ovariectomies or sham surgery at 43 or 46 weeks of age, and treatment with the compound started at 37 or 40 weeks thereafter, at 83 weeks of age.
Four treatment groups were used: sham-surgery given control diet (N=14); sham-surgery given compound (N=12); OVX-surgery given control diet (N=14); and OVX-surgery given compound (N=12). The compound was dosed by incorporating it into the rats' diet: 0.46 grams of compound per kg of diet. The target dose was 30 mg/kg. Dosing occurred for five weeks.
Bone mass and architecture was determined by microCT, using a Scanco μCT40. […] The difference between the cortical bone thicknesses of the sham control and OVX control was −13%. Two-factor ANOVA values were: p<0.001 for OVX surgery; p=0.05 for treatment; and p=0.65 for interaction.
Two-factor ANOVA values were: p=0.79 for OVX surgery; p=0.05 for treatment; and p=0.52 for interaction.

| Compound | IC50 [2] | EC50 [3] | further results |
| --- | --- | --- | --- |
| O=C([O-])[O-].[Li+].[Li+] [Li2CO3, reference compound] |  |  | decrease in cortical bone thickness (midshaft femur) compared to control ([1]; first study, 0.1% in diet, 25 days, p=0.90): 2% |
| CC(C)c1sc2ncnc(SCC(=O)O)c2c1Cl [2-((5-chloro-6-isopropylthieno[2,3-d]pyrimidin-4-yl)thio)acetic acid] | < 25 nM | < 1000 nM | increase in cortical bone thickness (midshaft femur) compared to control ([1]; 5 mg/kg twice daily oral gavage, 25 days, starting at 8.7 weeks of age, p=0.002): 6%; increase in cortical bone thickness (midshaft femur) compared to control ([1]; 10 mg/kg twice daily oral gavage, 25 days, starting at 8.7 weeks of age, p=0.007): 5%; increase in cortical bone thickness (midshaft femur) compared to control ([1]; 15 mg/kg twice daily oral gavage, 25 days, starting at 8.7 weeks of age, p=0.001): 6% |
| Cc1c(Cl)sc2c(SCC(=O)O)ncnc12 [2-((6-chloro-7-methylthieno[3,2-d]pyrimidin-4-yl)thio)acetic acid] | < 25 nM | < 1000 nM | increase in midshaft femur cortical bone thickness compared to control ([1]; first experiment, 10 mg/kg daily oral gavage, 25 days, starting at 54 weeks of age, p=0.06): 6%; increase in midshaft femur cortical bone thickness compared to control ([1]; first experiment, 100 mg/kg daily oral gavage, 25 days, starting at 54 weeks of age, p=0.03): 7%; increase in midshaft femur cortical bone thickness compared to control ([1]; second experiment, 34 mg/kg in diet, 18 days, starting at 8.1 weeks of age, p<0.01): 10%; increase in midshaft femur cortical bone thickness compared to control ([1]; second experiment, 34 mg/kg in diet, seven days, starting at 8.1 weeks of age, p=0.13): 6% |
| Cc1sc2ncnc(SCC(=O)O)c2c1Cl [2-((5-chloro-6-methylthieno[2,3-d]pyrimidin-4-yl)thio)acetic acid] | < 25 nM | < 1000 nM | increase in midshaft femur cortical bone thickness ([4]; intact (sham) rats): 3%; increase in midshaft tibia cortical thickness ([4]; intact (sham) rats): 2%; increase in midshaft femur cortical bone thickness ([4]; ovariectomized rats): 5%; increase in midshaft tibia cortical thickness ([4]; ovariectomized rats): 5% |
| Cc1sc2ncnc(SCC(=O)NCCc3cn[nH]c3)c2c1Cl [N-(2-(1H-pyrazol-4-yl)ethyl)-2-((5-chloro-6-methylthieno[2,3-d]pyrimidin-4-yl)thio)acetamide] | < 50 nM | < 1000 nM |  |
| CCCCOC(=O)CSc1ncnc2sc(C)c(C)c12 [butyl 2-((5,6-dimethylthieno[2,3-d]pyrimidin-4-yl)thio)acetate] | < 25 nM | < 1000 nM |  |
| Cc1sc2ncnc(SCC(=O)OC(C)C)c2c1C [isopropyl 2-((5,6-dimethylthieno[2,3-d]pyrimidin-4-yl)thio)acetate] | < 25 nM | < 1000 nM |  |
| Cc1csc2c(SCC(=O)O)ncnc12 [2-((7-methylthieno[3,2-d]pyrimidin-4-yl)thio)acetic acid] | < 250 nM | < 15000 nM |  |
| O=C(O)CSc1ncnc2c(C3CC3)c(Cl)sc12 [2-((6-chloro-7-cyclopropylthieno[3,2-d]pyrimidin-4-yl)thio)acetic acid] |  |  | increase in cortical bone thickness (midshaft femur) compared to control ([1]; 3 mg/kg daily oral gavage, 25 days, starting at 8.7 weeks of age, p=0.003): 7%; increase in cortical bone thickness (midshaft femur) compared to control ([1]; 10 mg/kg daily oral gavage, 25 days, starting at 8.7 weeks of age, p<0.001): 10%; increase in cortical bone thickness (midshaft femur) compared to control ([1]; 30 mg/kg daily oral gavage, 25 days, starting at 8.7 weeks of age, p<0.001): 13% |
| CC(C)c1sc2ncnc(SCC(=O)O)c2c1Br [2-((5-bromo-6-isopropylthieno[2,3-d]pyrimidin-4-yl)thio)acetic acid] | < 25 nM | < 1000 nM |  |
| O=C(O)CSc1ncnc2sc3c(c12)CCC3 [2-((6,7-dihydro-5H-cyclopenta[4,5]thieno[2,3-d]pyrimidin-4-yl)thio)acetic acid] | < 25 nM | < 5000 nM |  |
| Cc1c(Cl)sc2c(SCC(=O)NCCC#N)ncnc12 [2-((6-chloro-7-methylthieno[3,2-d]pyrimidin-4-yl)thio)-N-(2-cyanoethyl)acetamide] | < 25 nM | < 1000 nM |  |
| Cc1sc2ncnc(SCC(=O)NCC#N)c2c1Cl [2-((5-chloro-6-methylthieno[2,3-d]pyrimidin-4-yl)thio)-N-(cyanomethyl)acetamide] | < 25 nM | < 1000 nM |  |
| Cc1sc2ncnc(SCC(=O)NCCC#N)c2c1Cl [2-((5-chloro-6-methylthieno[2,3-d]pyrimidin-4-yl)thio)-N-(2-cyanoethyl)acetamide] | < 25 nM | < 1000 nM |  |
| Cc1sc2ncnc(SCC(=O)O)c2c1C [2-((5,6-dimethylthieno[2,3-d]pyrimidin-4-yl)thio)acetic acid] |  |  | increase in cortical bone thickness (midshaft femur) compared to control ([1]; first study, 25 mg/kg in diet, 25 days, starting at 10.7 weeks of age, p=0.04): 9%; increase in cortical bone thickness (midshaft femur) compared to control ([1]; first study, 83 mg/kg in diet, 25 days, starting at 10.7 weeks of age, p=0.07): 8%; increase in midshaft femur cortical thickness ([1]; 8 mg/kg in diet, 25 days, starting at 10.7 weeks of age, p=0.19): 4%; increase in midshaft femur cortical thickness ([1]; 24 mg/kg in diet, 25 days, starting at 10.7 weeks of age, p=0.05): 6% |
| Cc1cc2c(SCC(=O)O)ncnc2s1 [2-((6-methylthieno[2,3-d]pyrimidin-4-yl)thio)acetic acid] | < 250 nM | < 10000 nM |  |
